Assay results: patent publication US10632130B2, “Dehydroandrosterol and methods of using the same” (A[…], LLC, priority 2016, dated 2020)
Where two headings read alike, the source gives them in different places.

How the values were obtained:
human, male volunteers [1] = tested on: human, male volunteers
Experimental: Two human, male volunteers were selected to pre-trial the DHA material by single daily oral administration. Both were of mature age, not naive to various exogenously supplied androgens, and in good general health. Food and exercise routine was not modified from normal during the testing period, so as to avoid introduction of confounding variables.
Doses were ramped 50 mg weekly, beginning at 50 mg and concluding at 200 mg.
One of the test subjects (Subject #2) took a two week washout after this initial testing regiment and resumed testing at 100 mg, ramping the dose weekly as prior but using 100 mg increments, such that at four weeks of testing the subject was using 400 mg.
After another two week washout period, Subject #2 elected to resume testing of DHA with another related compound, androsterone, at various doses. Over several more months, this DHA/androsterone ratio was altered over a range and maintained at various ratios for not less than five days at a time before modification.

goats = tested on: goats
Experimental: Caprine studies were also performed in two test animals. The test animals selected were monozygous male twins, castrated and placed in separate pens not later than six weeks after birth.
At approximately three months of age, one of these two goats was selected to receive daily DHA in a single, bolus, oral dose. The other goat was not given DHA, and served as the control. All parameters were equalized (pen size, ambient temperature, once daily exercise for 15 minutes on tread mill, 30 minute “play” time with other goats, twice daily ad-lib feeding of identical source feed, etc.)
Dosing was initiated in the test goat at 50 mg. After two weeks, the dose was increased to 100 mg, then after another two weeks increased to 200 mg, then maintained at that dose for an additional four weeks.
At the end of the eight week testing period, the two test animals were weighed to establish gains made from their original base-line weight at the beginning of the study.

human, male volunteers [2] = tested on: human, male volunteers; remark: listed apart in the source
From the text: Two human, male volunteers were selected to trial the encapsulated DHA material by daily oral administration. They were allowed to select their own serving schedules and serving sizes (within reason of extrapolated values), provided they be consistent and document the compliance of their regimens. Both were of mature age, not naive to various exogenously supplied androgens, and in good general health. Food and exercise routine was not modified from normal during the testing period, so as to avoid introduction of confounding variables.
In particular, Trial Participant #1 was a person who took five capsules a day (100 mg/day DHA) of the composition for sixteen weeks. […] Trial Participant #2 was a person who took four capsules a day (80 mg/day DHA) of the composition for six weeks.

[3] = testosterone as comparative standard; estimated; cited from earlier work
[4] = Trial Participant #2, 80 mg/day DHA, six weeks

C[C@]12CC[C@H]3[C@@H](CC=C4C[C@H](O)CC[C@@]43C)[C@@H]1CC[C@@H]2O [DHA, 5-Androsten-3a,17b-diol]
androgenic synergism with androsterone (human, male volunteers [1]; Subject #2, extended testing, co-administered androsterone over a wide dose range): punctuated androgenic synergism | dose dependence of effects (human, male volunteers [1]; both test subjects): proportional to dose in a fairly linear fashion | parameters associated with enhanced androgen status (muscle hardness/fullness, strength) (human, male volunteers [1]; both test subjects): distinct improvements | side-effects characteristic of exogenous hormones (human, male volunteers [1]; both test subjects, acne only noted at the higher doses tested): mild acne being the only undesirable effect | subjective improvements, as defined by weight, strength, and/or muscle hardness gain (human, male volunteers [1]; both test subjects, one month, oral doses ramped 50 mg weekly from 50 mg to 200 mg): subjective improvements | male behavior in castrate male (goats; test goat in play pen with superior goats): Alpha-male behavior was indeed noted to be established | appetite and food intake (goats; test goat versus control): greater appetite and food intake | weight gain relative to control goat (goats; test goat, eight weeks): approximately double | general weight gain (goats; test goat, eight weeks, from base-line 46 pounds, control 33%): 59% | weight at end of testing (goats; test goat, eight weeks, oral 50 mg, then 100 mg, then 200 mg daily, start weight 46 pounds, control 61 pounds): 73 pounds | weight gained (human, male volunteers [2]; Trial Participant #1, 100 mg/day DHA, sixteen weeks): fifteen | bench press at the end (human, male volunteers [2]; Trial Participant #1, 100 mg/day DHA, sixteen weeks, 270 pounds at the beginning): 340 | single repetition leg squats at the end (human, male volunteers [2]; Trial Participant #1, 100 mg/day DHA, sixteen weeks, 430 pounds at the beginning): 545 pounds | deadlift at the end (human, male volunteers [2]; Trial Participant #1, 100 mg/day DHA, sixteen weeks, 455 pounds at the beginning): 560 pounds | improvement of all major lifting measurements from start to finish (human, male volunteers [2]; [4]): 20-25 pounds | weight gained (human, male volunteers [2]; [4]): twelve | reported effects of consumer use: increases in strength, lean muscle gains, increased fat loss, appetite increase, libido boost, increased energy, and increased muscle hardness | reported side effects (consumer use): slight acne and slight lethargy | relative androgenic activity equivalent to that of testosterone [3]: approximately 43%
